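The concentration for 50% growth inhibition is given as GI50. The concentration for full growth arrest is given as TGI.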
Assays:
Test in all cases: NCI-60 cell line screen, 384-well format
MCF7 breast = test system: MCF7 breast
SK-MEL-28 melanoma = test system: SK-MEL-28 melanoma
SK-MEL-5 melanoma = test system: SK-MEL-5 melanoma
CAKI-1 renal = test system: CAKI-1 renal
SNB-75 CNS = test system: SNB-75 CNS
HOP-62 NSCLC = test system: HOP-62 NSCLC
LOX IMVI melanoma = test system: LOX IMVI melanoma
A549 NSCLC = test system: A549 NSCLC
PC-3 prostate = test system: PC-3 prostate
UACC-257 melanoma = test system: UACC-257 melanoma
KM12 colon = test system: KM12 colon
SW-620 colon = test system: SW-620 colon
MDA-MB-468 breast = test system: MDA-MB-468 breast
RXF 393 renal = test system: RXF 393 renal
ACHN renal = test system: ACHN renal
M14 melanoma = test system: M14 melanoma
HCT-116 colon = test system: HCT-116 colon
HCC-2998 colon = test system: HCC-2998 colon
786-0 renal = test system: 786-0 renal
HOP-92 NSCLC = test system: HOP-92 NSCLC
A498 renal = test system: A498 renal
SF-268 CNS = test system: SF-268 CNS
NCI-H226 lung = test system: NCI-H226 lung
RPMI-8226 leukemia = test system: RPMI-8226 leukemia
DU-145 prostate = test system: DU-145 prostate
TK-10 renal = test system: TK-10 renal
MALME-3M melanoma = test system: MALME-3M melanoma
HCT-15 colon = test system: HCT-15 colon
UACC-62 melanoma = test system: UACC-62 melanoma
EKVX NSCLC = test system: EKVX NSCLC
OVCAR-4 ovarian = test system: OVCAR-4 ovarian
U251 glioblastoma = test system: U251 glioblastoma
UO-31 renal = test system: UO-31 renal
SNB-19 CNS = test system: SNB-19 CNS
BT-549 breast = test system: BT-549 breast
HT29 colon = test system: HT29 colon
HL-60(TB) leukemia = test system: HL-60(TB) leukemia
T-47D breast = test system: T-47D breast
IGROV1 ovarian = test system: IGROV1 ovarian

**Q.** Which results are given for CC(=O)c1nc(-c2ccc(C[C@@H](CNC(=O)CN(C)C)NC(=O)c3ccc(OC(C)C)c(Cl)c3)cc2)cn1C?
**A.** GI50 (MCF7 breast): 60.1 nM; TGI (MCF7 breast): 18200 nM; GI50 (SK-MEL-28 melanoma): 1130 nM; TGI (SK-MEL-28 melanoma): 7500 nM; GI50 (SK-MEL-5 melanoma): 25.4 nM; TGI (SK-MEL-5 melanoma): 1180 nM; GI50 (CAKI-1 renal): 45.4 nM; TGI (CAKI-1 renal): 16500 nM; GI50 (SNB-75 CNS): 55.8 nM; TGI (SNB-75 CNS): 15800 nM; GI50 (HOP-62 NSCLC): 41.4 nM; TGI (HOP-62 NSCLC): 20700 nM; GI50 (LOX IMVI melanoma): 62.8 nM; TGI (LOX IMVI melanoma): 18000 nM; GI50 (A549 NSCLC): 36.7 nM; TGI (A549 NSCLC): 16500 nM; GI50 (PC-3 prostate): 31.4 nM; TGI (PC-3 prostate): 19100 nM; GI50 (UACC-257 melanoma): 68.3 nM; TGI (UACC-257 melanoma): 1760 nM; GI50 (KM12 colon): 13.9 nM; TGI (KM12 colon): 19800 nM; GI50 (SW-620 colon): 47.3 nM; TGI (SW-620 colon): 20600 nM; TGI (MDA-MB-468 breast): 29.5 nM; GI50 (RXF 393 renal): 19.2 nM; TGI (RXF 393 renal): 10900 nM; GI50 (ACHN renal): 11000 nM; TGI (ACHN renal): 23200 nM; GI50 (M14 melanoma): 17.4 nM; TGI (M14 melanoma): 51.5 nM; GI50 (HCT-116 colon): 34.1 nM; TGI (HCT-116 colon): 15100 nM; GI50 (HCC-2998 colon): 18.1 nM; TGI (HCC-2998 colon): 6860 nM; GI50 (786-0 renal): 18.4 nM; TGI (786-0 renal): 14000 nM; GI50 (HOP-92 NSCLC): 1820 nM; TGI (HOP-92 NSCLC): 18200 nM; GI50 (A498 renal): 39 nM; TGI (A498 renal): 19400 nM; GI50 (SF-268 CNS): 12.3 nM; TGI (SF-268 CNS): 43.9 nM; GI50 (NCI-H226 lung): 12200 nM; TGI (NCI-H226 lung): 24600 nM; GI50 (RPMI-8226 leukemia): 21.3 nM; TGI (RPMI-8226 leukemia): 42.9 nM; GI50 (DU-145 prostate): 16.9 nM; TGI (DU-145 prostate): 15900 nM; GI50 (TK-10 renal): 10200 nM; TGI (TK-10 renal): 21900 nM; GI50 (MALME-3M melanoma): 61.3 nM; TGI (MALME-3M melanoma): 1700 nM; GI50 (HCT-15 colon): 47.1 nM; TGI (HCT-15 colon): 16100 nM; GI50 (UACC-62 melanoma): 16.1 nM; TGI (UACC-62 melanoma): 17900 nM; GI50 (EKVX NSCLC): 24.1 nM; TGI (EKVX NSCLC): 17300 nM; GI50 (OVCAR-4 ovarian): 12500 nM; TGI (OVCAR-4 ovarian): 25100 nM; GI50 (U251 glioblastoma): 16.2 nM; TGI (U251 glioblastoma): 16900 nM; GI50 (UO-31 renal): 823 nM; TGI (UO-31 renal): 20900 nM; GI50 (SNB-19 CNS): 14.5 nM; TGI (SNB-19 CNS): 21500 nM; GI50 (BT-549 breast): 25.8 nM; TGI (BT-549 breast): 13600 nM; GI50 (HT29 colon): 13 nM; TGI (HT29 colon): 60 nM; GI50 (HL-60(TB) leukemia): 14.9 nM; TGI (HL-60(TB) leukemia): 29 nM; GI50 (T-47D breast): 22.7 nM; TGI (T-47D breast): 13100 nM; GI50 (IGROV1 ovarian): 54.1 nM; TGI (IGROV1 ovarian): 20400 nM
